The source of these data is patent publication US8778882B2, “Agent for strengthening calcium containing tissue and use thereof” (Hayashibara Co., Ltd., priority 2002, dated 2014).

Test [1] relates to mouse pre-osteoblastic cell MC3T3-E1. The test can be described thus: Alkaline phosphatase activity in mouse pre-osteoblastic cells. It is filed as cell-based. To be noted: for activity at 20 µM: Mus musculus. As for the experimental part:
To increase number of osteoblastic cells having calcium-deposition activity is important for increasing bone mass. […] The activity is at low level in pre-osteoblastic cells and at high level in osteoblastic cells differentiated form the pre-osteoblastic cells. […] Since final ethanol concentration in the medium is 0.2% (v/v), α-MEM medium containing 0.2% (v/v) ethanol was prepared as a negative control. The cells were inoculated for eight days as changing the medium therewith to fresh medium with or without each sample per three days. Alkaline phosphatase activity was measured using “Alkaline Phospha B-Test Wako” (commercialized by Wako Pure Chemical Industries, Osaka, Japan) according with Kajii et al (Archives of Oral Biology, Vol. 44, pp. 233-241, (1999)). Briefly, to the above described mouse pre-osteoblastic cells washed with 1 ml of 0.25 M sucrose solution three times after removing the medium were added 0.45 ml of 50 mM carbonate salt buffer (pH9.8) containing 1 mM magnesium chloride and 50 mM sucrose and 0.05 ml of 3.4 mM disodium p-nitrophenyl phosphate in due course. The mixture was incubated at 25° C. for five minutes and admixed with 1.5 ml of 0.6N sodium hydroxide as a reaction terminator. Absorbance 405 nm of p-nitrophenol generated by alkaline phosphatase in the resulting mixture was measured, and the obtained values were used as values as alkaline phosphatase activity. […] The experiment was performed by the method according to Experiment 1 except that culture day in the medium containing each sample was three, six or nine, and concentration of each sample was 5, 10 or 20 μM. […] As a negative control, mediums containing ethanol in the above concentration were prepared for calculating relative activity to the activity of each control.

The next test has as its system Mouse MC3T3-E1 cells. As to the kind of experiment: Calcium deposition by alizarin red-S staining. Type of test: cell-based. Also noted: key: +: same strength of red color as a negative control (only medium containing 0.2% (v/v) ethanol); ++: half strength of the positive control; +++: same strength of red color as a positive control (indomethacin). To be noted: MC3T3-E1, 20 mM each compound (so in the source), eight days, alizarin red-S red color judgement. The text has this: Following Experiment 1 which investigates differentiating pre-osteoblastic cells into osteoblastic cells, some of organic compounds were investigated whether they actually enhance calcium deposition or not. Indomethacin (commercialized by Funakoshi, Co., Ltd., Tokyo, Japan) (positive control), kaempferol (commercialized by Funakoshi, Co., Ltd., Tokyo, Japan), hesperetin (commercialized by Funakoshi, Co., Ltd., Tokyo, Japan), gallic acid (commercialized by Nacalai Tesque, Kyoto, Japan), and coffeic acid (commercialized by Wako Pure Chemical Industries, Osaka, Japan) were selected as organic compounds. Mouse MC3T3-E1 cells were treated with 20 mM each above compound dissolved in 1 ml of α-MEM medium supplemented with 10% (v/v) fetal calf serum and containing 10 mM β-glycerophosphate. Since final ethanol concentration in the medium is 0.2% (v/v), α-MEM medium containing 0.2% (v/v) ethanol was prepared as a negative control. The cells were inoculated for eight days as changing the medium therewith to fresh medium with or without each sample per three days. The cells were applied to measure calcium deposition therein by usual alizarin red-S staining method. Briefly to the cells washed with 1 ml of Dulbecco phosphate buffer saline twice after removing the medium were added 1 ml of 50 (v/v) % ethanol aqueous solution and incubated for 10 minutes. After removing the 50 (v/v) % ethanol aqueous solution, the cells were incubated with 1 ml of distilled water for 10 minutes. After removing the water, the cells were applied with 1 ml of 1% (w/v) alizarin red-S solution, incubated for 10 minutes, and washed with 1 ml of distilled water for three times after removing alizarin red-S solution. Then, the calcium deposition amount was measured in a manner of judging red color on the plate bottom since deposited calcium was stained by the above treatment. The judgement criterion “+” means same strength of red color as a negative control (only medium containing 0.2% (v/v) ethanol), “+++” means same strength of red color as a positive control (indomethacin), and “++” means half strength of the positive control.

Test [2] relates to mouse pre-osteoblastic cell MC3T3-E1. As to the kind of experiment: Calcium deposition amount by Calcium C Test Wako. It is filed as cell-based. From the text:
Other flavonoid compounds than kaempferol or hesperetin were investigated where they have the same effect or not. Flavone (commercialized by Kanto Kagaku, Tokyo, Japan), apigenin (commercialized by Funakoshi, Co., Ltd., Tokyo, Japan), flavonol (commercialized by Tokyo Kasei Kogyo, Co., Ltd., Tokyo, Japan), quercetin (commercialized by Kanto Kagaku, Tokyo, Japan), kaempferol (commercialized by Funakoshi, Co., Ltd., Tokyo, Japan), rutin (commercialized by Kanto Kagaku, Tokyo, Japan), flavanone (commercialized by Kanto Kagaku, Tokyo, Japan), naringenin (commercialized by Ardrich Corporation), hesperetin (commercialized by Funakoshi, Co., Ltd., Tokyo, Japan), hesperidin (commercialized by Kanto Kagaku, Tokyo, Japan), chalcone (commercialized by Merk Corporation), fuloretin (commercialized by Sigma Corporation), catechin (commercialized by Sigma Corporation), ipriflavone (commercialized by Daito Corporation, Toyama, Japan), taxifolin (commercialized by Funakoshi, Co., Ltd., Tokyo, Japan), sulfuretin (commercialized by Funakoshi, Co., Ltd.; Tokyo, Japan), or cyanidin (commercialized by Funakoshi, Co., Ltd., Tokyo, Japan) was selected as test samples. Alkaline phosphatase activity was measured by the method of Experiment 1. Calcium deposition was measured by usual method using “Calcium C Test Wako” (commercialized by Wako Pure Chemical Industries, Osaka, Japan), briefly, cultured cells were washed with 1 ml of Dulbecco phosphate buffer saline three times after removing the medium. To the resultant was added 0.5 ml of 2N hydrochloric acid to resolve deposited calcium. To 5 μl of the resultant solution were added 0.5 ml of 0.88M monoethanolamine buffer (pH11) and 0.05 ml of 0.63 mM o-cresolphthalein complexone solution (binding to calcium ion to form chelate complex) containing 69 mM 8-quinolinol and mixed. Calcium amount per one hole of the plate was calculated by measuring absorbance 570 nm of the resultants and standardizing with a standard calcium solution. The judgement of alkaline phosphatase activity or calcium deposition amount of each sample was to calculate the relative activity or the relative calcium deposition amount to the negative control (only medium containing 0.2% (v/v) ethanol) and to compare each other.
The enhancement of calcium deposition between kaempferol and ipripfavone were compared. Test samples and their adding manner were same as Experiment 4. Calcium deposition amount was measured by usual method using “Calcium C Test Wako” (commercialized by Wako Pure Chemical Industries, Osaka, Japan); briefly, cultured cells were washed with 1 ml of Dulbecco phosphate buffer saline three times after removing the medium. To the resultant was added 0.5 ml of 2N hydrochloric acid to resolve deposited calcium. To 5 μl of the resolving solution were added 0.5 ml of 0.88M monoethanolamine buffer (pH11) and 0.05 ml of 0.63 mM o-cresolphthalein complexone solution (binding to calcium ion to form chelate complex) containing 69 mM 8-quinolinol and mixed, Calcium amount per one hole of the plate was calculated by measuring absorbance 570 nm of the resultants and standardizing with a standard calcium solution.
Kaempferol or hesperetin in combination with ipriflavone, or a kind of isoflavones, was investigated whether to enhance calcium deposition or not. Methods for preparing samples and culturing the cells were the same method described in Experiment 1 except culturing the cells for five days, Method for measuring calcium was the same method described in Experiment 3 and 5. Final ethanol concentration of the medium containing each sample was adjusted as same concentration.

The test system of a further test is Rat Femur and Tibia. As to the kind of experiment: Enhancing calcium deposition in rat femur and tibia. It is filed as in vivo. To be noted: for Calcium Content Per One Dried Bone / Dried Bone Mass: rats fed sample in high sucrose feeding stuff for eight weeks. As for the experimental part:
The experiment was performed using six three-weeks-aged female Wister rats per one group. The rats were fed with high sucrose feeding stuff containing ingredients listed Table 11 (In the Table, each value means “weight %”.) and one part by weight of each test sample; hesperetin (commercialized by Funakoshi, Co., Ltd., Tokyo, Japan), quercetin (commercialized by Tokyo Kasei Kogyo, Co., Ltd., Tokyo, Japan), α-glycosyl hesperidin (product name “αG HESPERIDINE”, commercialized by Hayashibara Shoji Inc., Okayama, Japan), α-glycosyl rutin (product name “αG RUTIN P”, commercialized by Hayashibara Shoji Inc., Okayama, Japan), or ipriflavone (commercialized by Daito Corporation, Toyama, Japan) (positive control). As a negative control, rats fed with feedstuff containing one part by weight of sucrose replacing test sample were prepared. The rats were allowed to freely take water. The rats were killed after eight weeks, and then, their femurs and tibias were excised. Each femur or tibia dried at 100° C. for about six hours was measured by electric even balance for high precision analysis (product name “HA180M/12QM”, commercialized by A & D Co, Ltd., Tokyo, Japan), and then, each bone was placed into a crucible and burned in an incinerator at 950° C. for six hours. The cinerary resultant was resolved in hydrochloric solution and provided for measuring calcium amount by atomic absorption photometer. Calcium amount per one dried bone was calculated and compared each other.

The mark [3] stands for this setting: 192 h, MC3T3-E1, 20 mM each compound (so in the source), eight days, relative to 0.2% (v/v) ethanol negative control.

On to `O=C(O)/C=C/c1ccc(O)c(O)c1` [Coffeic Acid, coffeic acid], for which, in test [1] (MC3T3-E1, 20 mM each compound (so in the source), eight days, relative to 0.2% (v/v) ethanol negative control), the “Relative Alkaline Phosphatase Activity (%)” value is 97%. In the test with Mouse MC3T3-E1 cells, the “Calcium Deposition Amount” value was “+”.

For the molecule `O=C(O)c1cc(O)c(O)c(O)c1` [Gallic Acid, gallic acid], in test [1] (setting [3]), the activity at 20 µM stood at 79%. Moreover, the “Calcium Deposition Amount” value in the test with Mouse MC3T3-E1 cells is given as “+”.

With `COc1ccc2c(c1)c(CC(=O)O)c(C)n2C(=O)c1ccc(Cl)cc1` [Indomethacin, indomethacin, reference compound], the activity at 20 µM in test [1] (setting [3]) was 142%. Moreover, the “Calcium Deposition Amount” value in the test on Mouse MC3T3-E1 cells was “+++”.

As to `O=c1c(O)c(-c2ccc(O)cc2)oc2cc(O)cc(O)c12` [Kaempferol], the activity at 20 µM in test [1] (setting [3]) came to 162%; in test [1] (MC3T3-E1, flavonoid comparison, method of Experiment 1, relative to 0.2% (v/v) ethanol negative control) it was 162%; in test [2] (Mus musculus, MC3T3-E1, flavonoid comparison, Calcium C Test Wako, relative to 0.2% (v/v) ethanol negative control), 305%. Also, in the test on Mouse MC3T3-E1 cells, the “Calcium Deposition Amount” value was “+++”.

As for α-glycosyl rutin, the “alkaline phosphatase activity in vitro” value in test [1] (glycosides, in vitro) is listed as “did not demonstrate”. The “Calcium Content Per One Dried Bone” value in the test with Rat Femur and Tibia (Femur) is reported as 119.9 mg; in the test with Rat Femur and Tibia (Tibia), 107.7 mg. Besides, the “Dried Bone Mass” value in the test with Rat Femur and Tibia (Femur) was 0.439 g; in the test on Rat Femur and Tibia (Tibia), 0.343 g. For the same molecule, the “calcium deposition in femur and tibia” value with Rat Femur and Tibia (rats, eight weeks feeding) is recorded as “increase of calcium deposition content”. The “calcium deposition in vitro” value in test [2] (glycosides, in vitro) was “did not demonstrate”.
